Reference: patent US4447603A, “Substituted-6-n-propyl-8-methylimidazo[1,5-d]-as-triazin-4-(3H)-ones” (American Cyanamid Company, priority 1981, dated 1984)

Test system: histamine release from immunologically stimulated human basophils
Test: inhibition of mediator (histamine) release from immunologically stimulated human basophils
Type: cell-based
Settings: Leukocyte, 1 h; human basophils (leukocytes) challenged with anti-IgE or antigen, 60 minutes at 37° C.; linear regression; read-out: ED50 (the concentration in μM which causes a 50% inhibition of histamine release)
Description: The novel compounds of this invention as well as the prior art compound, 6-n-propyl-8-methylimidazo[1,5-d]-as-triazin-4(3H)-one, have been tested by the procedure of Lichtenstein, L. M. and Osler, A. G., J. Exp. Med., 120, 507-530, (1964), which evaluates the ability of compounds to inhibit mediator (histamine) release from immunologically stimluated human basophils.
Dissolve 140.3 g. of sodium chloride, 7.45 g. of potassium chloride and 74.5 g. of Trizma-Tris Pre-Set, Reagent Grade, pH 7.6, at 25° C. (Sigma Chemical Co.) in sufficient water to give a final volume of 2 liters.
(Sigma Chemical Co.) (30 mg./ml.)
Made to 0.075 M and 0.5 M. respectively, with calcium chloride dihydrate and magnesium chloride hexahydrate.
A 10 ml. portion of 10X Tris Buffer and 1.0 ml. of human albumin are diluted to 100 ml. with water.
A 10 ml. portion of 10X Tris Buffer, 1.0 ml. of human albumin. 0.8 ml. of calcium stock and 0.2 ml. of magnesium stock are diluted to 100 ml. with water.
Behring Diagnostics (Generally used at 10 μg. protein/ml. final concentration.)
Strength 1:100 (w:v) allergenic extract, Hollister-Stier Labs. Generally this is diluted 1:1000 to 1:10,000 (considering the vial as stock).
Intradermal solutions or intramuscular preparations for hyposensitization, Hollister-Stier Labs. The final concentration used is on the order of 1 PNU/ml.
Eighty milliliters of blood is withdrawn from subjects with known histamine release to anti-IgE, ragweed antigen or other specific allergen, using four 20 ml. heparinized tubes. This 80 ml. of blood is mixed with 20 ml. of saline containing 0.6 g. of dextrose and 1.2 g. of dextran. The blood is allowed to sediment at room temperature in two 50 ml. polycarbonate centrifuge tubes until a sharp interface develops between the red cells and plasma (60-90 minutes). The plasma (top) layer from each tube is withdrawn by pipet and transferred to respective 50 ml. polycarbonate tubes. The plasma is centrifuged for 8 minutes at 110X g at […] The supernatant is carefully poured off as completely as possible and the cell button is resuspended in 2-3 ml. of Tris-A buffer using a siliconized Pasteur pipet. The resuspension is accomplished by drawing the liquid gently in and out of the pipet, with the tip below the liquid, until an even suspension of cells is obtained. Sufficient Tris-A buffer is then added to bring the volume in the tube to about 45 ml. and the tube is centrifuged at 110X g for 8 minutes at 4° C. The supernatant is poured off and the cell button is resuspended and centrifuged as described above. […]

IC50 [µM] | SMILES
16.1 | CCCc1n[nH]c(=O)n2c(CCC)nc(C)c12 [1,6-Di-n-propyl-8-methylimidazo[1,5-d]-as-triazin-4(3H)-one]
13.1 | CCCc1nc(C)c2c(C)n[nH]c(=O)n12 [1,8-Dimethyl-6-n-propylimidazo[1,5-d]-as-triazin-4(3H)-one]
87 | CCCc1nc(C)c2cn[nH]c(=O)n12 [6-n-propyl-8-methylimidazo[1,5-d]-as-triazin-4(3H)-one, reference compound]
12.3 | CCCc1nc(C)c2c(CC)n[nH]c(=O)n12 [1-Ethyl-6-n-propyl-8-methylimidazo[1,5-d]-as-triazin-4(3H)-one]
